Data reported in patent US20180110824A1, “Macrocyclic Modulators of the Ghrelin Receptor” (Ocera Therapeutics, Inc., priority 2016, published 2018).
Like-named read-outs stand apart in the source and are kept apart here.

Molecular target: T1, human growth hormone secretagogue receptor (hGHS-R1a) (Homo sapiens, UniProt Q92847)
T1 construct: purchased PerkinElmer BioSignal #RBHGHSM; host or cells: HEK-293, stably transfected
Assay: Competitive radioligand binding assay (ghrelin receptor), [125I]-ghrelin displacement on GHS-R/HEK 293 membranes;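 on Binding Activity at the Human Ghrelin Receptor (Ki): symbols B 10-100 nM C 0.1-1 µM D 1-10 µM F above 1 µM G above 10 µM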
Experimental: The competitive binding assay at the human growth hormone secretagogue receptor (hGHS-R1a) was carried out analogously to assays described in the literature.
Multiscreen Harvest plates-GF/C (Millipore, #MAHFC1H60) • 4. […] Bottom seal (Millipore, #MATAH0P00) • 7. […] Binding Buffer: 25 mM Hepes (pH 7.4), 1 mM CaCl2, 5 mM MgCl2, 2.5 mM EDTA, 0.4% BSA
Competition experiments were performed in a 300 μl filtration assay format. • 1. 220 μL of membranes diluted in binding buffer • 2. 40 μL of compound diluted in binding buffer • 3.
Compounds were provided frozen on dry ice at a stock concentration of 10 mM diluted in 100% DMSO and stored at −80° C. until the day of testing. On the test day, compounds were allowed to thaw at rt O/N and then diluted in assay buffer according to the desired test concentrations. Under these conditions, the maximal final DMSO concentration in the assay was 0.1%.
Plates were sealed with TopSeal-A, vortexed gently and incubated at rt for 30 min. The reaction was arrested by filtering samples through Multiscreen Harvest plates (pre-soaked in 0.5% polyethyleneimine) using a Tomtec Harvester, washed 9 times with 500 μL of cold 50 mM Tris-HCl (pH 7.4, 4° C.), and then plates were air-dried in a fumehood 30 min. A bottom seal was applied to the plates prior to the addition of 25 μL of MicroScint-0 to each well. […] Results were expressed as counts per minute (cpm).
Data were analyzed by GraphPad Prism (GraphPad Software, San Diego, Calif.) using […] non-linear regression analysis.
where total and non-specific binding represent the cpm obtained in the absence or presence of 1 μM ghrelin, respectively.
• 1. Binding performed on membranes prepared from HEK293 expressing the transfected, cloned human ghrelin receptor (hGHS-R1a). • 2. […] Ghrelin (unlabeled, 1 μM) was used to determine non-specific binding. • 4.

[1] = [125I]-ghrelin displacement, GHS-R/HEK 293 membranes, class symbols, read-out: Binding Activity at the Human Ghrelin Receptor (Ki)
[2] = Table 3B, binding activity at the human ghrelin receptor, read-out: Ki

T1 sequence (Q92847 whole entry): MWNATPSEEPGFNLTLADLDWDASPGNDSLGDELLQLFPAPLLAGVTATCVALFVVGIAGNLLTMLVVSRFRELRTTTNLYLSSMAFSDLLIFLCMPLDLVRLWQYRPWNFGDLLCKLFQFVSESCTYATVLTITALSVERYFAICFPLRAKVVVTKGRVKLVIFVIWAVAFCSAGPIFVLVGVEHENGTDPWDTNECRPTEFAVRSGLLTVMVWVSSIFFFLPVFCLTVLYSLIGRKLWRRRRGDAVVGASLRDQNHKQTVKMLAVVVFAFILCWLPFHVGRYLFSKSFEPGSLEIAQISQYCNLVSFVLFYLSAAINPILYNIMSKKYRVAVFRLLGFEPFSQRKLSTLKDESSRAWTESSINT

Row | Ki [2] [nM] | Structure (SMILES) | other results
1 | – | CC(C)C[C@@H]1NCCOc2ccccc2CCCNC(=O)[C@H](Cc2ccccc2)NC(=O)[C@H]2CCCN2C1=O [compound 223] | Ki (Table 3E, read-out: Ki): 1000 to 10000 nM; Ki [1]: 1000 to 10000 nM
2 | – | C[C@@H]1C(=O)N[C@H](Cc2ccccc2)C(=O)NCCCc2ccccc2OCCN2CCC[C@H]2C(=O)N1C [compound 225] | Ki (Table 3E, read-out: Ki): 100 to 1000 nM; Ki [1]: 100 to 1000 nM
3 | 10 to 100 | O=C1NC2(CCCC2)C(=O)N[C@@H](Cc2cccc(Cl)c2)C(=O)NC/C=C/c2ccccc2OCCN[C@H]1Cc1ccc(O)cc1 [compound 301] | –
4 | 100 to 1000 | C[C@@H]1C(=O)N[C@H](Cc2ccc(F)cc2)C(=O)NCCC=CCOCCN[C@@H](C2CC2)C(=O)N1C [compound 307] | –
5 | 0.1 to 10 | C[C@@H]1C(=O)N[C@H](Cc2ccc(F)cc2)C(=O)NCCCc2ccccc2OCCN[C@@H](C2CC2)C(=O)N1C [compound 309] | –
6 | 10 to 100 | C[C@@H]1C(=O)N[C@H](Cc2ccsc2)C(=O)NCCCc2ccccc2OCCN[C@@H](C2CC2)C(=O)N1C [compound 310] | –
7 | 0.1 to 10 | C[C@@H]1C(=O)N[C@H](Cc2ccccc2F)C(=O)NCCCc2ccccc2OCCN[C@@H](C2CC2)C(=O)N1C [compound 312] | –
8 | 10 to 100 | C[C@@H]1C(=O)N[C@H](Cc2cccc(F)c2)C(=O)NCCCc2ccccc2OCCN[C@@H](C2CC2)C(=O)N1C [compound 313] | –
9 | 0.1 to 10 | C[C@@H]1C(=O)N[C@H](Cc2ccc(Cl)c(Cl)c2)C(=O)NCCCc2ccccc2OCCN[C@@H](C2CC2)C(=O)N1C [compound 315] | –
10 | 10 to 100 | C[C@@H]1C(=O)N[C@H](Cc2ccc(F)c(F)c2)C(=O)NCCCc2ccccc2OCCN[C@@H](C2CC2)C(=O)N1C [compound 316] | –
11 | 10 to 100 | C[C@@H]1C(=O)N[C@H](Cc2cc(F)cc(F)c2)C(=O)NCCCc2ccccc2OCCN[C@@H](C2CC2)C(=O)N1C [compound 317] | –
12 | 0.1 to 10 | C[C@@H]1C(=O)N[C@H](Cc2ccc(Br)cc2)C(=O)NCCCc2ccccc2OCCN[C@@H](C2CC2)C(=O)N1C [compound 319] | –
13 | 0.1 to 10 | C[C@@H]1C(=O)N[C@H](Cc2ccc(I)cc2)C(=O)NCCCc2ccccc2OCCN[C@@H](C2CC2)C(=O)N1C [compound 320] | –
14 | 10 to 100 | C[C@@H]1C(=O)N[C@H](Cc2ccc(C#N)cc2)C(=O)NCCCc2ccccc2OCCN[C@@H](C2CC2)C(=O)N1C [compound 321] | –
15 | 100 to 1000 | COc1ccc(C[C@H]2NC(=O)[C@@H](C)N(C)C(=O)[C@H](C3CC3)NCCOc3ccccc3CCCNC2=O)cc1OC [compound 323] | –
16 | 10 to 100 | CC[C@H](C)[C@@H]1NCCOc2ccccc2/C=C/CNC(=O)[C@H](Cc2cccc(Br)c2)NC(=O)C2(CCCC2)NC1=O [compound 326] | –
17 | 10 to 100 | CC[C@H](C)[C@@H]1NCCOc2ccccc2/C=C/CNC(=O)[C@H](Cc2cccc(C#N)c2)NC(=O)C2(CCCC2)NC1=O [compound 329] | –
18 | 100 to 1000 | CCC(C)C1NCCOc2ccccc2C=CCNC(=O)C(Cc2ccsc2)NC(=O)C2(CCCC2)NC1=O (stereo not shown) [compound 333] | –
19 | 10 to 100 | CO[C@H](C)[C@@H]1NCCOc2ccccc2CCCNC(=O)[C@@H](Cc2ccc(F)cc2)NC(=O)[C@@H](C)N(C)C1=O [compound 335] | –
20 | 100 to 1000 | COC[C@@H]1NCCOc2ccccc2CCCNC(=O)[C@@H](Cc2ccc(F)cc2)NC(=O)[C@@H](C)N(C)C1=O [compound 336] | –
21 | 100 to 1000 | C[C@@H]1C(=O)N[C@H](Cc2ccc(F)cc2)C(=O)NCCCc2ccccc2OCCN[C@@H](CN)C(=O)N1C [compound 337] | –
22 | 100 to 1000 | C[C@@H]1C(=O)N[C@H](Cc2ccc(F)cc2)C(=O)NCCCc2ccccc2OCCN[C@@H](CCN)C(=O)N1C [compound 338] | –
23 | 100 to 1000 | C[C@@H]1C(=O)N[C@H](Cc2ccc(F)cc2)C(=O)NCCCc2ccccc2OCCN[C@@H](CCCN)C(=O)N1C [compound 339] | –
24 | 10 to 100 | CSCC[C@@H]1NCCOc2ccccc2CCCNC(=O)[C@@H](Cc2ccc(F)cc2)NC(=O)[C@@H](C)N(C)C1=O [compound 340] | –
25 | 10 to 100 | O=C1NC2(CCCC2)C(=O)N[C@@H](Cc2cccc(Cl)c2)C(=O)NC/C=C/c2ccccc2OCCN[C@H]1Cc1ccsc1 [compound 341] | –
26 | 100 to 1000 | N#Cc1ccccc1C[C@@H]1NCCOc2ccccc2/C=C/CNC(=O)[C@H](Cc2cccc(Cl)c2)NC(=O)C2(CCCC2)NC1=O [compound 342] | –
27 | 100 to 1000 | COC[C@@H]1NCCOc2ccccc2/C=C/CNC(=O)[C@H](Cc2cccc(Cl)c2)NC(=O)C2(CCCC2)NC1=O [compound 344] | –

Row | Ki [2] [nM] | Structure (SMILES) | other results
28 | 100 to 1000 | O=C1NC/C=C/c2ccccc2OCCN[C@@H](C2CC2)C(=O)NC2(CCCC2)C(=O)N[C@H]1Cc1cccc(Cl)c1 [compound 346] | –
29 | 10 to 100 | C[C@@H]1C(=O)N[C@H](Cc2ccc(F)cc2)C(=O)NCCCc2cc(F)ccc2OCCN[C@@H](C2CC2)C(=O)N1C [compound 355] | –
30 | 100 to 1000 | C[C@@H]1C(=O)N[C@H](Cc2ccc(F)cc2)C(=O)NCCCc2cc(C(F)(F)F)ccc2OCCN[C@@H](C2CC2)C(=O)N1C [compound 356] | –
31 | 100 to 1000 | C[C@@H]1C(=O)N[C@H](Cc2ccc(F)cc2)C(=O)NCCCc2ccc(NS(C)(=O)=O)cc2OCCN[C@@H](C2CC2)C(=O)N1C [compound 357] | –
32 | 100 to 1000 | CC[C@H](C)[C@@H]1NCCOc2ccccc2C(C)(C)CCNC(=O)[C@H](Cc2cccc(Cl)c2)NC(=O)C2(CCCC2)NC1=O [compound 359] | –
33 | 100 to 1000 | CC[C@H](C)[C@@H]1NCCOCC=CCCNC(=O)[C@H](Cc2cccc(Cl)c2)NC(=O)C2(CCCC2)NC1=O [compound 360] | –
34 | 100 to 1000 | CCC(C)C1NCCCc2ccccc2C=CCCNC(=O)C(Cc2cccc(Cl)c2)NC(=O)C2(CCCC2)NC1=O (stereo not shown) [compound 361] | –
35 | 100 to 1000 | CC[C@H](C)[C@@H]1NCc2ccccc2CCCCCNC(=O)[C@H](Cc2cccc(Cl)c2)NC(=O)C2(CCCC2)NC1=O [compound 362] | –
36 | 100 to 1000 | CC[C@H](C)[C@@H]1NCCCCCCNC(=O)[C@H](Cc2cccc(Cl)c2)NC(=O)C2(CCCC2)NC1=O [compound 365] | –
37 | 100 to 1000 | CC[C@H](C)[C@@H]1NCCCCCCCNC(=O)[C@H](Cc2cccc(Cl)c2)NC(=O)C2(CCCC2)NC1=O [compound 366] | –
38 | 100 to 1000 | CCC(C)C1NCCOCCCCCNC(=O)C(Cc2cccc(Cl)c2)NC(=O)C2(CCCC2)NC1=O (stereo not shown) [compound 370] | –
39 | 10 to 100 | CC[C@H](C)[C@@H]1NCCCc2ccccc2CCCCNC(=O)[C@H](Cc2cccc(Cl)c2)NC(=O)C2(CCCC2)NC1=O [compound 371] | –
40 | 10 to 100 | C[C@@H]1C(=O)N[C@H](Cc2ccc(F)cc2)C(=O)NCCCc2cc(Cl)ccc2OCCN[C@@H](C2CC2)C(=O)N1C [compound 373] | –
41 | 100 to 1000 | CC1CCNC(=O)[C@@H](Cc2ccc(F)cc2)NC(=O)[C@@H](C)N(C)C(=O)[C@H](C2CC2)NCCOc2ccccc21 (stereo partly shown) [compound 375] | –
42 | 100 to 1000 | CC1CNC(=O)[C@@H](Cc2ccc(F)cc2)NC(=O)[C@@H](C)N(C)C(=O)[C@H](C2CC2)NCCOc2ccccc2C1 (stereo partly shown) [compound 376] | –
43 | 100 to 1000 | C[C@@H]1C(=O)N[C@H](Cc2ccc(F)cc2)C(=O)NCCC(C)(C)c2ccccc2OCCN[C@@H](C2CC2)C(=O)N1C [compound 378] | –
44 | 10 to 100 | CC1C(=O)NC(Cc2ccc(F)cc2)C(=O)NCC2CC2c2ccccc2OCCNC(C2CC2)C(=O)N1C (stereo not shown) [compound 379] | –
45 | 100 to 1000 | CC[C@H](C)[C@@H]1NCCOc2ccccc2/C=C\CNC(=O)[C@H](Cc2cccc(Cl)c2)NC(=O)C2(CCCC2)NC1=O [compound 380] | –
46 | 10 to 100 | CC[C@H](C)[C@@H]1NCCOc2ccccc2C#CCNC(=O)[C@H](Cc2cccc(Cl)c2)NC(=O)C2(CCCC2)NC1=O [compound 381] | –
47 | 100 to 1000 | CC[C@H](C)[C@@H]1NCCOc2cc(F)ccc2CCCNC(=O)[C@H](Cc2cccc(Cl)c2)NC(=O)C2(CCCC2)NC1=O [compound 383] | –
48 | 100 to 1000 | CC[C@H](C)[C@@H]1NCCOc2ccc(Cl)cc2CCCNC(=O)[C@H](Cc2cccc(Cl)c2)NC(=O)C2(CCCC2)NC1=O [compound 384] | –
49 | 100 to 1000 | CC[C@H](C)[C@@H]1NCCOc2cccnc2CCCNC(=O)[C@H](Cc2cccc(Cl)c2)NC(=O)C2(CCCC2)NC1=O [compound 385] | –
50 | 100 to 1000 | CC[C@H](C)[C@@H]1NCCOc2ccccc2C(C)CCNC(=O)[C@H](Cc2cccc(Cl)c2)NC(=O)C2(CCCC2)NC1=O (stereo partly shown) [compound 386] | –
51 | 100 to 1000 | CC[C@H](C)[C@@H]1NCCOc2ccccc2[C@@H]2C[C@@H]2CNC(=O)[C@H](Cc2cccc(Cl)c2)NC(=O)C2(CCCC2)NC1=O [compound 387] | –
52 | 100 to 1000 | CC[C@H](C)[C@@H]1NCCCNCCNC(=O)[C@H](Cc2cccc(Cl)c2)NC(=O)C2(CCCC2)NC1=O [compound 390] | –
53 | 0.1 to 10 | C[C@@H]1C(=O)N[C@H](Cc2cc(F)c(F)c(F)c2)C(=O)NCCCc2ccccc2OCCN[C@@H](C2CC2)C(=O)N1C [compound 391] | –
